In patent US12012407B1, “Pyrazolo[1,5-a]pyrido[4,3-e]pyrimidine-3-carboxylic acids as CK2 inhibitors” (KING FAISAL UNIVERSITY, priority 2024, dated 2024):

How the values were obtained:
PC3 (prostate) = assay: In vitro cytotoxic activity (MTT) assay, PC3; type: cell-based; conditions: Homo sapiens, Prostate cell; PC3 (prostate) cells, exposed for 96 hours; read-out: Cytotoxicity activity IC50 (50% inhibition of cell proliferation)
Description: (§1) Compounds 1-16 were screened for their in vitro cytotoxic activity utilizing a 3-(4,5-dimethyl-thiazol-2-yl)-2,5-diphenyltetrazolium bromide (MTT) assay against selected cancer human cell lines consisting of PC3 (prostate), HCT116 (colon), A375 (melanoma), H1299 (lung), MIAPaCa-2 (pancreas), HL60 (leukemia), MCF7 (breast), MDA-MB-231 (breast) (T. Mosmann, J. Immunol. Meth., 1983, 65, 55-63). The cells were cultured at 37° C. in RMPI1640 medium supplemented with 10% fetal bovine serum, 50 IU/mL penicillin, and 50 μg/mL streptomycin in a 5% CO2 incubator. All cells were sub-cultured 3 times/week by trypsinisation. Viable cells were seeded and allowed to adhere for 12 hours before a test drug was added in 96-well plates at an initial density of 1.0×10^5 cells/mL. Tumor cell lines were separately exposed to various concentrations of the tested compounds followed by incubation at a temperature of 37° C. during 96 hours inside a medium of fresh RMPI 1640. Cells were subsequently incubated at 37° C. using MTT at 0.5 mg/mL during 4 hours. After removal of supernatant, formazan crystals were dissolved in isopropanol and the optical density was measured at 570 nm. CX-4945 was used as a positive control.

HCT116 (colon) = assay: In vitro cytotoxic activity (MTT) assay, HCT116; type: cell-based; conditions: Homo sapiens, HCT-116; HCT116 (colon) cells, exposed for 96 hours; read-out: Cytotoxicity activity IC50 (50% inhibition of cell proliferation)
Description: as §1

A375 (melanoma) = assay: In vitro cytotoxic activity (MTT) assay, A375; type: cell-based; conditions: Homo sapiens, A-375; A375 (melanoma) cells, exposed for 96 hours; read-out: Cytotoxicity activity IC50 (50% inhibition of cell proliferation)
Description: as §1

H1299 (lung) = assay: In vitro cytotoxic activity (MTT) assay, H1299; type: cell-based; conditions: Homo sapiens, NCI-H1299; H1299 (lung) cells, exposed for 96 hours; read-out: Cytotoxicity activity IC50 (50% inhibition of cell proliferation)
Description: as §1

MIAPaCa-2 (pancreas) = assay: In vitro cytotoxic activity (MTT) assay, MIAPaCa-2; type: cell-based; conditions: Homo sapiens, MIA PaCa-2; MIAPaCa-2 (pancreas) cells, exposed for 96 hours; read-out: Cytotoxicity activity IC50 (50% inhibition of cell proliferation)
Description: as §1

HL60 (leukemia) = assay: In vitro cytotoxic activity (MTT) assay, HL60; type: cell-based; conditions: Homo sapiens, HL-60; HL60 (leukemia) cells, exposed for 96 hours; read-out: Cytotoxicity activity IC50 (50% inhibition of cell proliferation)
Description: as §1

MCF7 (breast) = assay: In vitro cytotoxic activity (MTT) assay, MCF7; type: cell-based; conditions: Homo sapiens; MCF7 (breast) cells, exposed for 96 hours; read-out: Cytotoxicity activity IC50 (50% inhibition of cell proliferation)
Description: as §1

MDA-MB-231 (breast) = assay: In vitro cytotoxic activity (MTT) assay, MDA-MB-231; type: cell-based; conditions: Homo sapiens; MDA-MB-231 (breast) cells, exposed for 96 hours; read-out: Cytotoxicity activity IC50 (50% inhibition of cell proliferation)
Description: as §1

[1] = biological target: T1, recombinant human CK2 (RRBB-holoenzyme) (Homo sapiens, UniProt P68400); assay: CK2 Kinase Assay (33P-ATP, filter plate); type: biochemical; conditions: final ATP concentration 15 μM, 10 min at 30° C., eight concentrations; read-out: protein kinase CK2 inhibition IC50
T1 construct: purchased Millipore
T1 sequence (P68400 whole entry): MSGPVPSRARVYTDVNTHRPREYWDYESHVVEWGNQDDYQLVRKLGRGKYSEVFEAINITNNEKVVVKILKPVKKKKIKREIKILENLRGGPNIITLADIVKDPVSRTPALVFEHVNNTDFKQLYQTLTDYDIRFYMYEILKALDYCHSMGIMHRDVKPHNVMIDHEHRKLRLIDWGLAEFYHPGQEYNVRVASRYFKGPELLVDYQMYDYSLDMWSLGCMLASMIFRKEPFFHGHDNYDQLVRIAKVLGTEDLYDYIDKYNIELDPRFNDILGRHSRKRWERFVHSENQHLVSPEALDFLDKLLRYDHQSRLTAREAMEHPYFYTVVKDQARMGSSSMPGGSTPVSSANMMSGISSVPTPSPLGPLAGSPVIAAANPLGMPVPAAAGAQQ
T1 sequence (P67870 whole entry partner): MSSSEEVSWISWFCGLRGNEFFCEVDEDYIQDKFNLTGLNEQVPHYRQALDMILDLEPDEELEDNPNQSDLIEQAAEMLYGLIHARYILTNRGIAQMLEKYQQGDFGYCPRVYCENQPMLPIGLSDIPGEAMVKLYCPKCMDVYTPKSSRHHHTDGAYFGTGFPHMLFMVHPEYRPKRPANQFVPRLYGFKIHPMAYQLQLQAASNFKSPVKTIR
Description: CK2 Kinase Assay was conducted using the protocol as described in Pierre F. et al; J. Med. Chem. 2011, 54, 635-654. The tested compounds in aqueous solution were added at a volume of 10 μL to a reaction mixture comprising 10 μL of assay dilution buffer (ADB; 20 mM MOPS, pH 7.2, 25 mM β-glycerol phosphate, 5 mM EGTA, 1 mM sodium orthovanadate, and 1 mM dithiothreitol), 10 μL of substrate peptide (RRRDDDSDDD, dissolved in ADB at a concentration of 1 mM), 10 μL of recombinant human CK2 (RRBB-holoenzyme, 25 ng dissolved in ADB; Millipore). Reactions were initiated by the addition of 10 μL of ATP solution (90% 75 mMMgCl2, 75 μM ATP (final ATP concentration: 15 μM) dissolved in ADB; 10% [Y-33P] ATP (stock 1 mCi/100 μL; 3000 Ci/mmol (Perkin-Elmer) and maintained for 10 min at 30° C. The reactions were quenched with 100 μL of 0.75% phosphoric acid and then transferred to and filtered through a phosphor cellulose filter plate (Millipore). After washing each well five times with 0.75% phosphoric acid, the plate was dried under vacuum for 5 min and, following the addition of 15 μL of scintillation fluid to each well, the residual radioactivity was measured using a Wallac luminescence counter. The IC50 values were derived from eight concentrations of test inhibitors.

IC50 [1]: 96 nM
SMILES: O=C(O)c1cnn2c1nc(Nc1cccc(Cl)c1)c1ccncc12 [Compound 1, 5-((3-chlorophenyl)amino)pyrazolo[1,5-a]pyrido[4,3-e]pyrimidine-3-carboxylic acid]
IC50 (PC3 (prostate)): 2100 nM
IC50 (HCT116 (colon)): 1900 nM
IC50 (A375 (melanoma)): 4300 nM
IC50 (H1299 (lung)): 1600 nM
IC50 (MIAPaCa-2 (pancreas)): 1100 nM
IC50 (HL60 (leukemia)): 3900 nM
IC50 (MCF7 (breast)): 5200 nM
IC50 (MDA-MB-231 (breast)): 4400 nM
